Results from patent publication EP0429333B1, “Process for producing oxazopyrroloquinolines, novel oxazopyrroloquinolines, and use of oxazopyrroloquinolines” (priority 1989, dated 1991).

Tests used:
[1] = target: aldose reductase of kidney (Canis lupus familiaris, UniProt A0A8I3P2L6); experiment: Inhibitory effect on aldose reductase of kidney; format: biochemical, dog; details: read-out: Degree of inhibition for aldose reductase (%); for inhibition at 1 µM: concentration 1x10^-6 M; for inhibition at 2 µM: concentration 2x10^-6 M; for inhibition at 5 µM: concentration 5x10^-6 M; for inhibition at 0.5 µM: concentration 5x10^-7 M; for inhibition at 10 µM: concentration 1x10^-5 M; for inhibition at 0.2 µM: concentration 2x10^-7 M
Procedure: Medulla of kidney of dog was homogenized with 10mM phosphoric acid buffer (pH 7.0) containing 2mM dithiothreitol in an amount of four times the volume of kidney medulla and subjected to centrifugation. The supernatant liquid was purified by affinity chromatography, gel filtration and chromatofocusing to obtain electrophoretically homogeneous aldose reductase. 0.05 ml of 3mM NADPH, 0.1 ml of DL-glyceraldehyde and 0.04 ml of distilled water were added to 0.8 ml of 0.1M phosphoric acid buffer (pH 6.2) and left to stand at 25°C for 3 minutes. Then, 0.01 ml of the aldose reductase solution was added thereto to start reaction and decreasing of absorbance of 340 nm was measured at 25°C with time. Amount of enzyme which consumes 1 µmole of NADPH for 1 minute was taken as 1 unit.

[2] = target: T1, aldose reductase of rabbit lens (Oryctolagus cuniculus, UniProt P15122); experiment: Inhibitory effect on aldose reductase of lens; format: biochemical; details: read-out: Degree of inhibition for aldose reductase (%); for inhibition at 1 µM: concentration 1x10^-6 M; for inhibition at 0.5 µM: concentration 5x10^-7 M
T1 construct: to obtain electrophoretically homogeneous aldose reductase; from tissue; host or cells: rabbit lens
Procedure: 0.05 ml of 3mM NADPH, 0.1 ml of DL-glyceraldehyde and 0.04 ml of distilled water were added to 0.8 ml of 0.1M phosphoric acid buffer (pH 6.2) and left to stand at 25°C for 3 minutes. Then, 0.01 ml of the aldose reductase solution was added thereto to start reaction and decreasing of absorbance of 340 nm was measured at 25°C with time. Amount of enzyme which consumes 1 µmole of NADPH for 1 minute was taken as 1 unit.
Enzyme activity was measured under the same conditions as in the above measurement of aldose reductase activity except that 0.04 ml of aqueous solution of inhibitory substance in various concentrations was added in place of 0.04 ml of distilled water and degree of inhibition was calculated from comparison of the enzyme activity with the enzyme activity obtained in the absence of inhibitor. (1) OPQ, (2) methyl OPQ, (3) 1-methylpropyl OPQ, (4) 2-methylpropyl OPQ, (5) 2-carbamoylethyl OPQ, (6) hydroxymethyl OPQ, (7) 2-methylthioethyl OPQ, (8) 2-carboxyethyl OPQ, (9) 4-hydroxybenzyl OPQ, (10) 1-methylethyl OPQ, and (11) benzyl OPQ were used as inhibition substances and (12) PQQ was used as control.
Lens of rabbit was homogenized with 10mM phosphoric acid buffer (pH 7.0) containing 2mM dithiothreitol in an amount of two times the volume of the lens and subjected to centrifugation. The supernatant liquid was purified by affinity chromatography, gel filtration and chromatofocusing to obtain electrophoretically homogeneous aldose reductase. Using (1) OPQ, (2) 1-methylpropyl OPQ, (3) 2-methylpropyl OPQ, (4) hydroxymethyl OPQ, and (5) 1-methylethyl OPQ as inhibition substances, degree of inhibition of these substances for aldose reductase of rabbit lens was examined in the same manner in Example 32.

[3] = Solubility of the isolated compound, described in words; format: physicochemical; details: for solubility in water / solubility under neutral and alkaline conditions: water
kidney = experiment: Toxicity to kidney determined by blood examination; format: in vivo, mice; details: conclusion from the blood examinations (a) and (b)
Procedure: After one day from administration, the mice were fasted (only water was given) and after lapse of 18 hours, blood was collected and serum was obtained therefrom. Glucose, urea nitrogen and creatinine in the serum were examined using FUJI Dry Chemslide (manufactured by Fuji Photo Film Co., Ltd.). […]
Thereafter, the mice were fasted (with giving only water) and after lapse of 18 hours, blood was collected and serum was obtained therefrom. Contents of glucose, urea nitrogen and creatinine in serum were obtained using FUJI Dry Chemslide. The results were shown by average value for eight mice.

Compound `CC(C)c1nc2c3nc(C(=O)O)cc(C(=O)O)c3c3[nH]c(C(=O)O)cc3c2o1` [1-Methylethyl OPQ, 5-(1-Methylethyl)-2,8,10-tricarboxy-1H-oxazo[5,4-h]-pyrrolo[2,3-f]quinoline] has an inhibition at 1 µM [1] of 30.5%, an inhibition at 2 µM [1] of 48.1% and an inhibition at 5 µM [1] of 68.2%. For the same compound, the inhibition at 1 µM [2] was 43.3%, the inhibition at 2 µM ([2]; concentration 2x10^-6 M) was 51.9% and the inhibition at 5 µM ([2]; concentration 5x10^-6 M) was 68.4%. For the same compound, the inhibition at 0.5 µM [2] was 33%, the “solubility in acetone and diethyl ether” value [3] was “did not dissolve” and the “solubility in lower alcohols” value [3] was “dissolved”. For the same compound, the solubility in water [3] was “easily soluble” and the “solubility under neutral and alkaline conditions” value [3] was “very easily soluble”.

`NC(=O)CCc1nc2c3nc(C(=O)O)cc(C(=O)O)c3c3[nH]c(C(=O)O)cc3c2o1` [2-Carbamoylethyl OPQ, 5-(2-Carbamoylethyl)-2,8,10-tricarboxy-1H-oxazo[5,4-h]-pyrrolo[2,3-f]quinoline] gave an inhibition at 1 µM [1] of 59.6%, an inhibition at 2 µM [1] of 75.7% and an inhibition at 5 µM [1] of 89.1%. The inhibition at 0.5 µM [1] was 44.7%, the “solubility in acetone and diethyl ether” value [3] was “did not dissolve” and the “solubility in lower alcohols” value [3] was “dissolved”. For the same compound, the solubility in water [3] was “easily soluble” and the “solubility under neutral and alkaline conditions” value [3] was “very easily soluble”.

Compound `O=C(O)CCc1nc2c3nc(C(=O)O)cc(C(=O)O)c3c3[nH]c(C(=O)O)cc3c2o1` [2-Carboxyethyl OPQ, 5-(2-Carboxyethyl)-2,8,10-tricarboxy-1H-oxazo[5,4-h]-pyrrolo[2,3-f]quinoline] has an inhibition at 10 µM [1] of 58.5%, an inhibition at 1 µM [1] of 48% and an inhibition at 2 µM [1] of 49.9%. For the same compound, the inhibition at 5 µM [1] was 55%, the inhibition at 0.5 µM [1] was 22.5% and the “solubility in acetone and diethyl ether” value [3] was “did not dissolve”. The “solubility in lower alcohols” value [3] was “dissolved”, the solubility in water [3] was “easily soluble” and the “solubility under neutral and alkaline conditions” value [3] was “very easily soluble”.

`CC(C)Cc1nc2c3nc(C(=O)O)cc(C(=O)O)c3c3[nH]c(C(=O)O)cc3c2o1` [2-Methylpropyl OPQ, 5-(2-Methylpropyl)-2,8,10-tricarboxy-1H-oxazo[5,4-h]-pyrrolo[2,3-f]quinoline] showed an inhibition at 1 µM [1] of 63.1%, an inhibition at 0.2 µM [1] of 30.2% and an inhibition at 0.5 µM [1] of 44.1%. For the same compound, the inhibition at 1 µM [2] was 69.8%, the inhibition at 0.1 µM ([2]; concentration 1x10^-7 M) was 27% and the inhibition at 0.2 µM ([2]; concentration 2x10^-7 M) was 34.9%. The inhibition at 0.5 µM [2] was 57.2%, the “solubility in acetone and diethyl ether” value [3] was “did not dissolve” and the “solubility in lower alcohols” value [3] was “dissolved”. For the same compound, the solubility in water [3] was “easily soluble” and the “solubility under neutral and alkaline conditions” value [3] was “very easily soluble”.

`O=C(O)c1cc(C(=O)O)c2c(n1)c1nc(Cc3ccc(O)cc3)oc1c1cc(C(=O)O)[nH]c12` [4-Hydroxybenzyl OPQ, 5-(4-Hydroxybenzyl)-2,8,10-tricarboxy-1H-oxazo[5,4-h]-pyrrolo[2,3-f]quinoline] showed an inhibition at 10 µM [1] of 89%, an inhibition at 1 µM [1] of 38.6% and an inhibition at 2 µM [1] of 49.4%. For the same compound, the inhibition at 5 µM [1] was 71.3%, the “solubility in acetone and diethyl ether” value [3] was “did not dissolve” and the “solubility in lower alcohols” value [3] was “dissolved”. For the same compound, the solubility in water [3] was “easily soluble” and the “solubility under neutral and alkaline conditions” value [3] was “especially soluble”.

Compound `Cc1nc2c3nc(C(=O)O)cc(C(=O)O)c3c3[nH]c(C(=O)O)cc3c2o1` [Methyl OPQ, 5-Methyl-2,8,10-tricarboxy-1H-oxazo[5,4-h]-pyrrolo-[2,3-f]quinoline] has an inhibition at 1 µM [1] of 92.1%, an inhibition at 0.1 µM ([1]; concentration 1x10^-7 M) of 25% and an inhibition at 0.2 µM [1] of 31.4%. For the same compound, the inhibition at 0.5 µM [1] was 73.6%, the “solubility in acetone and diethyl ether” value [3] was “did not dissolve” and the “solubility in lower alcohols” value [3] was “dissolved”. For the same compound, the solubility in water [3] was “easily soluble” and the “solubility under neutral and alkaline conditions” value [3] was “very easily soluble”.

Work on `O=C(O)c1cc(C(=O)O)c2c(n1)C(=O)C(=O)c1cc(C(=O)O)[nH]c1-2` [PQQ, pyrroloquinolinequinone, reference compound] yielded an inhibition at 10 µM [1] of 64.4%, an inhibition at 2 µM [1] of 17.3% and an inhibition at 5 µM [1] of 42.8%. For the same compound, the toxicity to kidney (kidney) was “showed toxicity to kidney”.
